# Results published in patent publication US8673884B2 (priority 2008, dated 2014).
# Key:
# [1] = system: Avian influenza H5N1 virus, A/Vietnam/1203/04; type: cell-based
# [2] = system: human influenza H1N1 virus, A/HK/54/98; type: cell-based
# H5N1 virus = type: cell-based, influenza A H5N1 virus
# H1N1 virus = type: cell-based, influenza A H1N1 virus
# dihydrofolic reductase = molecular target: T1, dihydrofolic reductase (Homo sapiens, UniProt P00374); settings: Baker and Jordaan, J. Med. Chem. 1965; cited from earlier work
# T1 sequence (P00374 1-187): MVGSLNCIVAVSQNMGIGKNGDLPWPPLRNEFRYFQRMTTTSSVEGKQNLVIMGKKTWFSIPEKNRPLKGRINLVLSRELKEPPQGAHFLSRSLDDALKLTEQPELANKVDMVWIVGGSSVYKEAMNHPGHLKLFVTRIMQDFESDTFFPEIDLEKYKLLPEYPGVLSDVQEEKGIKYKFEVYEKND
# [3] = system: Primary human blood macrophages; assay: Cell viability test (MTT); settings: 100 uM
# MDCK cells = assay: Cell viability test (MTT); settings: 100 uM
SMILES,inhibition of replication of H5N1 virus (in words) [1],inhibition of replication of H1N1 virus (in words) [2],level of H5N1 viruses on the surface of MDCK cells (H5N1 virus),level of H1N1 viruses on the surface of MDCK cells (H1N1 virus),inhibition of dihydrofolic reductase (dihydrofolic reductase),"degree of cytotoxicity (MTT, OD560-OD670 of sample / DMSO) ([3]; 72 hours, primary human blood macrophages, relative to DMSO)","cytotoxicity (in words) ([3]; primary macrophages, compared with DMSO)","degree of cytotoxicity (MTT, OD560-OD670 of sample / DMSO) (MDCK cells; 72 hours, relative to DMSO)",cytotoxicity (in words) (MDCK cells; compared with DMSO),H5N1 virus titer [1]
"Cc1nc(N)nc(O)c1CCCNc1ccc(/C=C/C(=O)CCl)cc1 [NSC#89853, 4-(4-((3-(2-amino-4-hydroxy-6-methyl-5-pyrimidinyl)propyl)amino)phenyl)-1-chloro-3-buten-2-one]",inhibits the replication,inhibits the replication,lower,lower,inhibitor,1.1,does not display cytotoxicity,2.2,does not display cytotoxicity,–
"CCOC(=O)C1=C[C@@H](OC(CC)CC)[C@H](NC(C)=O)[C@@H](N)C1 [oseltamivir, reference compound]",–,–,lower,lower,–,–,–,–,–,2.46 × 10^6 TCID50/ml
